Laboratory results from patent US10787446B2 (GENENTECH, INC., priority 2015, dated 2020).

Target: T1, hNav1.7 and the β1 subunit (Homo sapiens, UniProt Q15858)
T1 construct: expressed in transfected cells
Assay: Tritiated compound competitive binding to membranes from cells heterologously expressing hNav1.7 and the β1 subunit (LBA)
Conditions: competition with 100 pM [3H]compound, 18 h, room temperature; IC50 by 4 parameter logistic model
Outline: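 Membranes were incubated 18 h at room temperature with 100 pM [3H]-labelled NaV1.7 inhibitor and increasing test compound in 100 mM NaCl, 20 mM Tris HCl, pH 7.4. Bound radioligand was filtered on PEI-soaked GF/C, washed, and counted by scintillation. IC50 from a 4-parameter logistic fit of % inhibition.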

T1 sequence (Q15858 whole entry): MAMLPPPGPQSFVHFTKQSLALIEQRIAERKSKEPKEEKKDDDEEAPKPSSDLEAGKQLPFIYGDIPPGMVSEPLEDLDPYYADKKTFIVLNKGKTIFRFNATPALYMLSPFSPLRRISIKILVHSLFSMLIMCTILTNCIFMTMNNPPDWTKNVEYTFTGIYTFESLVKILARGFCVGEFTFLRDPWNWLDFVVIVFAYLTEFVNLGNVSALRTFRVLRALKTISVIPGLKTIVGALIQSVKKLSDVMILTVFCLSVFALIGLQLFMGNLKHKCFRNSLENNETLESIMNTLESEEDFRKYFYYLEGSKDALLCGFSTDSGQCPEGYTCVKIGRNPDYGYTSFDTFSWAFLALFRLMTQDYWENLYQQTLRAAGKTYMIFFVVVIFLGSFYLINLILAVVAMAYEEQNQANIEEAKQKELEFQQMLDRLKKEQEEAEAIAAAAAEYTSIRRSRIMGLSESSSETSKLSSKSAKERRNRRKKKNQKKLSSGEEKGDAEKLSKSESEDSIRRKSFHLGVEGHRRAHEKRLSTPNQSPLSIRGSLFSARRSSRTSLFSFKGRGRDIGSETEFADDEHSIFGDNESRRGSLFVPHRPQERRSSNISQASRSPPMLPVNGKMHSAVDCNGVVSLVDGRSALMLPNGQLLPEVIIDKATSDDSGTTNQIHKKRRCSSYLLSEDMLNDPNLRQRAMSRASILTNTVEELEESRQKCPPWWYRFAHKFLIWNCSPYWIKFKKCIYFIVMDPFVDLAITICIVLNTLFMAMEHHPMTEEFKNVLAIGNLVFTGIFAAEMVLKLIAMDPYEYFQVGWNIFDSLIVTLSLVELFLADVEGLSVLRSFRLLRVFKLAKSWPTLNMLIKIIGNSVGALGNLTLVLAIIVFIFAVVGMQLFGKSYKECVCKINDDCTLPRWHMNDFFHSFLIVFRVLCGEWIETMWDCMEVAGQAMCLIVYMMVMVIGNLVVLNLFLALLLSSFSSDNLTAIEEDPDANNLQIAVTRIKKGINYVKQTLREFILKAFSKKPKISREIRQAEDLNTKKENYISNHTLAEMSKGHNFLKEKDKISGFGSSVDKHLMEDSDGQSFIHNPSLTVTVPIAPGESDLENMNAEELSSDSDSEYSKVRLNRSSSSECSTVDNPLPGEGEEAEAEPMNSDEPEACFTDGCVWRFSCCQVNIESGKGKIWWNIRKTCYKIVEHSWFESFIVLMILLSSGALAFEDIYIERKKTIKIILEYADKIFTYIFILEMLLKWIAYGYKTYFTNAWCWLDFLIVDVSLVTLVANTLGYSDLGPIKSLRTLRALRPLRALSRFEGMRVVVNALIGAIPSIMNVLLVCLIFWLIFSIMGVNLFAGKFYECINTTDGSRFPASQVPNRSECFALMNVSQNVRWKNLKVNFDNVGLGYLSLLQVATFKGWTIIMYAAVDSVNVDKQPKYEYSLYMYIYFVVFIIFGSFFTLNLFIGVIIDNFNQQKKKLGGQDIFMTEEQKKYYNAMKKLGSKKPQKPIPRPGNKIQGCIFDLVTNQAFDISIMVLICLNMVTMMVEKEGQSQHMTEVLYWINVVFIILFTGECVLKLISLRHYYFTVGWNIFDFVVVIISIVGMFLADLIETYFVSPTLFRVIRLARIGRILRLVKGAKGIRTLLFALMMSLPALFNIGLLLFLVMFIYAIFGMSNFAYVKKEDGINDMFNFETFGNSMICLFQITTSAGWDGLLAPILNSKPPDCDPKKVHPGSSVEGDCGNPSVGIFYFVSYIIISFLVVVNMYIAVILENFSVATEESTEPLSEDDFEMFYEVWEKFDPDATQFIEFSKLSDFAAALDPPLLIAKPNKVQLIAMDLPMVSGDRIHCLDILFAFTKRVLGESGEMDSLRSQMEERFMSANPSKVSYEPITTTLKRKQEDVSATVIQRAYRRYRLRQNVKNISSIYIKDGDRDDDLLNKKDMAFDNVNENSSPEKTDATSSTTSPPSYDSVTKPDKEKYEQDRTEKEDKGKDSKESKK
T1 sequence (Q07699 19-218 partner): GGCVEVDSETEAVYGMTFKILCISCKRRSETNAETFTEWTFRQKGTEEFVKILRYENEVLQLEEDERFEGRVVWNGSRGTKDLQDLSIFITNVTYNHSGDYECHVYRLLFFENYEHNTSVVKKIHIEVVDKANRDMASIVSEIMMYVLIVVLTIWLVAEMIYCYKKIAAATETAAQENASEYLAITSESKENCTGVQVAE

Structure (SMILES)	Nav1.7 (LBA) [µM]
N#C[C@@H]1CCN([C@@H]2CCOc3cc(S(=O)(=O)Nc4ncns4)ccc32)[C@H](c2ccc(F)cc2)C1 [Example 178, (R)-4-((2S,4R)-4-cyano-2-(4-fluorophenyl)piperidin-1-yl)-N-(1,2,4-thiadiazol-5-yl)chroman-7-sulfonamide]	1.02
N#C[C@H]1CCN([C@H]2CCOc3cc(S(=O)(=O)Nc4ncns4)ccc32)[C@@H](c2ccc(F)cc2)C1 [Example 179, (S)-4-((2R,4S)-4-cyano-2-(4-fluorophenyl)piperidin-1-yl)-N-(1,2,4-thiadiazol-5-yl)chroman-7-sulfonamide]	0.0109
N#C[C@H]1CCN([C@@H]2CCOc3cc(S(=O)(=O)Nc4ncns4)ccc32)[C@@H](c2ccc(F)cc2)C1 [Example 180, (R)-4-((2R,4S)-4-cyano-2-(4-fluorophenyl)piperidin-1-yl)-N-(1,2,4-thiadiazol-5-yl)chroman-7-sulfonamide]	0.158
O=S(=O)(Nc1ncns1)c1ccc2c(c1)OCC[C@H]2N1CC[C@@H](CF)C[C@H]1c1ccc(F)cc1 [Example 181, (R)-4-((2S,4R)-4-(fluoromethyl)-2-(4-fluorophenyl)piperidin-1-yl)-N-(1,2,4-thiadiazol-5-yl)chroman-7-sulfonamide]	0.735
O=S(=O)(Nc1ncns1)c1ccc2c(c1)OCC[C@@H]2N1CC[C@@H](CF)C[C@H]1c1ccc(F)cc1 [Example 182, (S)-4-((2S,4R)-4-(fluoromethyl)-2-(4-fluorophenyl)piperidin-1-yl)-N-(1,2,4-thiadiazol-5-yl)chroman-7-sulfonamide]	0.00399
O=S(=O)(Nc1ncns1)c1ccc2c(c1)OCC[C@@H]2N1CC[C@H](CF)C[C@@H]1c1ccc(F)cc1 [Example 183, (S)-4-((2R,4S)-4-(fluoromethyl)-2-(4-fluorophenyl)piperidin-1-yl)-N-(1,2,4-thiadiazol-5-yl)chroman-7-sulfonamide]	0.00652
O=S(=O)(Nc1ncns1)c1ccc2c(c1)OCC[C@H]2N1CC[C@H](CF)C[C@@H]1c1ccc(F)cc1 [Example 184, (R)-4-((2R,4S)-4-(fluoromethyl)-2-(4-fluorophenyl)piperidin-1-yl)-N-(1,2,4-thiadiazol-5-yl)chroman-7-sulfonamide]	0.132
O=S(=O)(Nc1ncns1)c1ccc2c(c1)OCC[C@H]2N1CC[C@@H](C(F)F)C[C@H]1c1ccc(F)cc1 [Example 185, (R)-4-((2S,4R)-4-(difluoromethyl)-2-(4-fluorophenyl)piperidin-1-yl)-N-(1,2,4-thiadiazol-5-yl)chroman-7-sulfonamide]	2.18
O=S(=O)(Nc1ncns1)c1ccc2c(c1)OCC[C@@H]2N1CC[C@@H](C(F)F)C[C@H]1c1ccc(F)cc1 [Example 186, (S)-4-((2S,4R)-4-(difluoromethyl)-2-(4-fluorophenyl)piperidin-1-yl)-N-(1,2,4-thiadiazol-5-yl)chroman-7-sulfonamide]	0.00214
O=S(=O)(Nc1ncns1)c1ccc2c(c1)OCC[C@@H]2N1CC[C@H](C(F)F)C[C@@H]1c1ccc(F)cc1 [Example 187, (S)-4-((2R,4S)-4-(difluoromethyl)-2-(4-fluorophenyl)piperidin-1-yl)-N-(1,2,4-thiadiazol-5-yl)chroman-7-sulfonamide]	0.00255
O=S(=O)(Nc1ncns1)c1ccc2c(c1)OCC[C@H]2N1CC[C@H](C(F)F)C[C@@H]1c1ccc(F)cc1 [Example 188, (R)-4-((2R,4S)-4-(difluoromethyl)-2-(4-fluorophenyl)piperidin-1-yl)-N-(1,2,4-thiadiazol-5-yl)chroman-7-sulfonamide]	0.131
O=S(=O)(Nc1nccs1)c1cc2c(cc1F)[C@H](N1CC[C@@H](C(F)(F)F)C[C@H]1c1ccccn1)CCO2 [Example 190, (R)-6-fluoro-4-((2S,4R)-2-(pyridin-2-yl)-4-(trifluoromethyl)piperidin-1-yl)-N-(thiazol-2-yl)chroman-7-sulfonamide]	0.0448
O=S(=O)(Nc1ncns1)c1ccc2c(c1)OCC[C@H]2N1CC[C@@H](C(F)(F)F)C[C@H]1c1ccccn1 [Example 191, (R)-4-((2S,4R)-2-(pyridin-2-yl)-4-(trifluoromethyl)piperidin-1-yl)-N-(1,2,4-thiadiazol-5-yl)chroman-7-sulfonamide]	0.176
O=S(=O)(Nc1nccs1)c1cc2c(cc1F)[C@H](N1CC[C@@H](C(F)(F)F)C[C@H]1c1cccnc1)CCO2 [Example 193, (R)-6-fluoro-4-((2S,4R)-2-(pyridin-3-yl)-4-(trifluoromethyl)piperidin-1-yl)-N-(thiazol-2-yl)chroman-7-sulfonamide]	0.0103
O=S(=O)(Nc1nccs1)c1cc2c(cc1F)[C@H](N1CC[C@@H](C(F)(F)F)C[C@H]1c1ccncc1)CCO2 [Example 195, (R)-6-fluoro-4-((2S,4R)-2-(pyridin-4-yl)-4-(trifluoromethyl)piperidin-1-yl)-N-(thiazol-2-yl)chroman-7-sulfonamide]	0.0901
O=S(=O)(Nc1nccs1)c1cc2c(cc1F)[C@H](N1CC[C@@H](C(F)(F)F)C[C@H]1c1ccc(F)c(F)c1)CCO2 [Example 197, (R)-4-((2S,4R)-2-(3,4-difluorophenyl)-4-(trifluoromethyl)piperidin-1-yl)-6-fluoro-N-(thiazol-2-yl)chroman-7-sulfonamide]	0.351
O=S(=O)(Nc1nccs1)c1cc2c(cc1F)[C@@H](N1CC[C@@H](C(F)(F)F)C[C@H]1c1ccc(F)c(F)c1)CCO2 [Example 198, (S)-4-((2S,4R)-2-(3,4-difluorophenyl)-4-(trifluoromethyl)piperidin-1-yl)-6-fluoro-N-(thiazol-2-yl)chroman-7-sulfonamide]	0.000649
O=S(=O)(Nc1nccs1)c1cc2c(cc1F)[C@H](N1CC[C@@H](C(F)(F)F)C[C@H]1c1cn[nH]c1)CCO2 [Example 199, (R)-4-((2S,4R)-2-(1H-pyrazol-4-yl)-4-(trifluoromethyl)piperidin-1-yl)-6-fluoro-N-(thiazol-2-yl)chroman-7-sulfonamide]	0.11
Cn1cc([C@@H]2C[C@H](C(F)(F)F)CCN2[C@H]2CCOc3cc(S(=O)(=O)Nc4ncns4)ccc32)cn1 [Example 201, (S)-4-((2S,4R)-2-(1-methyl-1H-pyrazol-4-yl)-4-(trifluoromethyl)piperidin-1-yl)-N-(1,2,4-thiadiazol-5-yl)chroman-7-sulfonamide]	0.0037
Cc1cc([C@@H]2C[C@H](C(F)(F)F)CCN2[C@H]2CCOc3cc(S(=O)(=O)Nc4ncns4)ccc32)n(C)n1 [Example 203, (S)-4-((2S,4R)-2-(1,3-dimethyl-1H-pyrazol-5-yl)-4-(trifluoromethyl)piperidin-1-yl)-N-(1,2,4-thiadiazol-5-yl)chroman-7-sulfonamide]	0.00824
O=S(=O)(Nc1ncns1)c1ccc2c(c1)OCC[C@@H]2N1CC[C@@H](C(F)(F)F)C[C@H]1c1ccc(F)c(Cl)c1 [Example 204, (S)-4-((2S,4R)-2-(3-chloro-4-fluorophenyl)-4-(trifluoromethyl)piperidin-1-yl)-N-(1,2,4-thiadiazol-5-yl)chroman-7-sulfonamide]	0.00398
NC(=O)c1cccc([C@@H]2C[C@H](C(F)(F)F)CCN2[C@H]2CCOc3cc(S(=O)(=O)Nc4ncns4)ccc32)c1 [Example 205, 3-((2S,4R)-1-((S)-7-(N-(1,2,4-thiadiazol-5-yl)sulfamoyl)chroman-4-yl)-4-(trifluoromethyl)piperidin-2-yl)benzamide]	0.000907
Nc1cccc([C@@H]2C[C@H](C(F)(F)F)CCN2[C@H]2CCOc3cc(S(=O)(=O)Nc4nccs4)c(F)cc32)n1 [Example 206, (S)-4-((2S,4R)-2-(6-aminopyridin-2-yl)-4-(trifluoromethyl)piperidin-1-yl)-6-fluoro-N-(thiazol-2-yl)chroman-7-sulfonamide]	0.000515
O=S(=O)(Nc1ncns1)c1ccc2c(c1)OCC[C@@H]2NC(CCC(F)(F)F)c1ccccc1 (stereo partly drawn) [Example 207, (4S)—N-(1,2,4-thiadiazol-5-yl)-4-((4,4,4-trifluoro-1-phenylbutyl)amino)chroman-7-sulfonamide]	0.039
O=S(=O)(Nc1nccs1)c1cc2c(cc1F)[C@H](N1CC[C@H](C(F)(F)F)C[C@@H]1c1ccc(F)cc1)CCO2 [Example 209, (R)-6-fluoro-4-((2R,4S)-2-(4-fluorophenyl)-4-(trifluoromethyl)piperidin-1-yl)-N-(thiazol-2-yl)chromane-7-sulfonamide]	0.0683
O=S(=O)(Nc1nccs1)c1cc2c(cc1F)[C@H](N1CC[C@@H](C(F)(F)F)C[C@H]1c1ccn[nH]1)CCO2 [Example 210, (R)-4-((2S,4R)-2-(1H-pyrazol-5-yl)-4-(trifluoromethyl)piperidin-1-yl)-6-fluoro-N-(thiazol-2-yl)chromane-7-sulfonamide]	0.0375
O=S(=O)(Nc1nccs1)c1cc2c(cc1F)[C@@H](N1CC[C@H](C(F)(F)F)C[C@@H]1c1ccn[nH]1)CCO2 [Example 212, (S)-4-((2R,4S)-2-(1H-pyrazol-5-yl)-4-(trifluoromethyl)piperidin-1-yl)-6-fluoro-N-(thiazol-2-yl)chromane-7-sulfonamide]	0.0033
O=S(=O)(Nc1nccs1)c1cc2c(cc1F)[C@H](N1CC[C@H](C(F)(F)F)C[C@@H]1c1ccn[nH]1)CCO2 [Example 213, (R)-4-((2R,4S)-2-(1H-pyrazol-5-yl)-4-(trifluoromethyl)piperidin-1-yl)-6-fluoro-N-(thiazol-2-yl)chromane-7-sulfonamide]	0.0274
O=S(=O)(Nc1nccs1)c1cc2c(cc1F)[C@H](N1CC[C@@H](C(F)(F)F)C[C@H]1c1ccc(F)cc1)CCO2 [Example 214, (R)-6-fluoro-4-((2S,4R)-2-(4-fluorophenyl)-4-(trifluoromethyl)piperidin-1-yl)-N-(thiazol-2-yl)chromane-7-sulfonamide]	0.00144
